Measured values taken from patent US9421249B2, “Methods to activate or block the HLA-E/Qa-1 restricted CD8+ T cell regulatory pathway to treat immunological disease” (THE TRUSTEES OF COLUMBIA UNIVERSITY IN THE CITY OF NEW YORK, priority 2007, dated 2016).
Each block holds one substance with its values, some of them ahead of it. Where no end group is shown, it is not given here.

Tests used:
Qa-1 [1] = assay: Qa-1 binding assay (stabilization of Qa-1a surface expression on 3F4 transfectants, FACS); design: species or system murine; settings: 3F4 cells, peptide 50 μM, 26° C., approximately 18 hours
Description: The capacity of the peptides to bind to Qa-1 was first assessed by their ability to stabilize Qa-1 surface expression on 3F4 cells. The 3F4 cells were incubated at 26° C. for approximately 18 hours with Hsp60sp or Qdm peptides and a Qa-1 non-binding peptide HEL 74-96 served as control peptide (12, 14 and 17). As shown by FIG. 6, the binding of exogenous peptide at 26° C. causes a shift in the intensity of Qa-1a surface staining analyzed by FACS.
Selected Qa-1a-PcDNA3.1 positive transfectants detected by RT-PCR were assayed for their Qa-1 surface expression after loading with known Qa-1 binding peptides. In brief, Qa-1a transfectants were incubated at 26° C. for approximately 18 hours with Hsp60sp or Qdm peptides (10, 12 and 17). The surface expression of Qa-1a was assessed by staining with anti-Qa-1a sera followed by Phycoerythorine (PE)-goat anti-mouse Ig, analyzed on a FACScan flow cytometer and CellQuest™ software (Becton Dickinson, Mountain View, Calif.)(1). All peptides were used at 50 μM unless specifically indicated.

CD94/NKG2A [2] = assay: NK assay with peptide-loaded 3F4 cells; assay type: cell-based; settings: 3F4 cells loaded with peptide at 26° C. overnight; mouse NK cells 2 hrs
Description: Since a significant number of murine CD8+ T cells express CD94/NKG2A, it was investigated whether Qa-1/Hsp60sp generated in activated murine T cells is capable of interacting with CD94/NKG2A in a functional NK assay. […] This is also compatible with the notion that two types of Qa-1/HLA-E binding peptides could be distinguished by their ability of interact with CD94/NKG2A in both humans (14) and mice.
NK cell lines are routinely established from B10PL mice (24). Unlabeled 3F4 cells were loaded with test peptides at 26° C. overnight and mixed with an equal number of CFSE labeled human EBV transformed LCL cells which are not susceptible to the killing by mouse NK cells. Graded numbers of mouse NK cells were added to the mixture of 3F4 and LCL cells and further incubated at 37° C. for 2 hrs. 3F4 cells, which were not loaded with peptides or loaded with non-Qa-1 binding peptides served as controls. The cell mixtures were then stained with anti mouse H-2^U mAb 3-8-3P-PE to distinguish NK cells from target cells. The change in the ratio of 3F4 to LCL cells in the presence or absence of NK cells in each group detected by FACS (1) reflects the specific NK killing: % specific killing={[the killing ratio in control wells (without NK)−the killing ratio in experimental wells (with NK)]/the killing ratio of control wells}×100%.

Qa-1/HLA-E = settings: cited from earlier work
EAE in B10PL mice = assay: Peptide vaccination in EAE model; assay type: in vivo; settings: B10PL mice immunized subcutaneously with antigen emulsified with IFA; compared with IFA alone
Description: B10PL mice were vaccinated with either 1-9NacMBP, a MHC Class II biding peptide derived from MBP or p277, a MHC Class II biding peptide derived from Hsp60. In this regard, it is well known that 1-9NacMBP is a pathogenic peptide in B10PL mice and p277 may be involved in the pathogenesis of T1D in certain mouse strains (174) but irrelevant to EAE.

T1D in NOD mice = assay: Peptide vaccination in spontaneous T1D model; settings: NOD mice immunized subcutaneously with antigen emulsified with IFA; compared with IFA alone
Description: In the standard protocol used throughout this study female 8-10 weeks old B10PL or 3-4 weeks old NOD mice were immunized subcutaneously with 1-9Nac MBP or p277 emulsified with IFA at 100 uM/mouse as described. EAE was induced at least one week after peptide vaccination. CD8+ T cells were purified from spleens and draining lymph nodes of peptide vaccination protected EAE/B10PL mice or T1D/NOD mice by positive selection with CD8 MACS magnetic beads (Miltenyibiotec, Inc. Auburn Calif.). The purity of CD8+ T cells is routinely >95%.
The effect of peptide vaccination or adoptive transfer of CD8+ T cells was evaluated by assessing the clinical EAE (181) or T1D in the recipient mice.

[3] = test system: Qa-1 dependent CD8+ T cells; assay: CD8+ T cell inhibition assay, CD8+ T cells from EAE recovered mice; assay type: cell-based; settings: CD8+ T cells isolated from EAE recovered B10PL mice
Description: It was next tested if Qa-1/Hsp60sp is the target for the regulatory CD8+ T cells. […] The Qa-1 expressing 3F4 cell was used as the Qa-1 peptide presenting cell to test if Hsp60sp is preferentially recognized by the regulatory CD8+ T cells in a CD8+ T cell inhibition assay. The 1-9NacMBP (myelin basic protein) specific, intermediate avidity clone 1AE10, capable of inducing EAE in vivo (8, 19) served as a positive control, and a non-encephalitogenic, low avidity clone 4D10 as well as 3F4 loaded with control non-Qa-1 binding peptide or Qdm served as negative controls. […] Thus, Hsp60sp is, indeed, a specific target recognized by the CD8+ T cells, when presented by Qa-1.
3F4 cells were passively loaded with peptides overnight at 26° C. Equal number of unlabeled 3F4 cells loaded with peptides and CFSE labeled 3F4 cells that are not loaded with peptide were mixed and a graded number of CD8+ T cells were added to the targets. […] The ratio between peptide-loaded (non-CFSE-labeled) 3F4 cells and non-loaded (CFSE labeled) 3F4 cells in the presence of CD8+ T cells was determined as % of specific inhibition: {[the ratio of loaded to unloaded 3F4 cells in control cultures (without CD8+ T cells)−the ratio in experimental cultures (with CD8+ T cells)]/the ratio in control cultures}×100% (1).

CD94/NKG2A [4] = target: CD94/NKG2A (Homo sapiens, UniProt P26715+Q13241); settings: cited from earlier work
[5] = test system: HLA-E restricted CD8+ T cells; assay: CD8+ T cell inhibition CFSE assay on HLA-E transfectants loaded with peptide; assay type: cell-based, human
Description: Data obtained in human studies support the concept established in the murine studies.
To test if HLA-E restricted CD8+ T cells also play a similar role in the control of human T1D, the function of CD8+ T cells in freshly isolated PBMC from T1D patients was first tested. For this purpose two assays were employed. The first is a standard T cell proliferation assay measuring self non-self discrimination, comparing the overall immune responses of human PBMC to self versus foreign antigens in the presence or absence of CD8+ T cells. Thus, intact PBMC populations or purified CD4+ T cells were cultured with varying doses of the self-antigen GAD or foreign antigen TT. Comparing PBMC with purified CD4+ T cells could not alone definitively pinpoint the function of the CD8+ T cells contained in the PBMC. […] This is the case in testing the function of CD8+ T cells in T1D patients combined with the CD8+ T cell inhibition CFSE assay, which can be applied as a relative simple and feasible clinical test. […] We then proceeded to further identify the specificity of the CD8+ T cells. Thus, purified CD8+ T cells from T1D patients were tested on HLA-E transfectant H3B2 cells loaded with Hsp60sp. H3B2 loaded with B7sp or non-HLA-E binding peptide served as controls.
CD8+ T cells were in vitro primed with DCs loaded with either Hsp60sp [CD8(H)], or B7sp [CD8(B)] and tested for their specificity and the function of self-nonself discrimination using the two assays described above. […] To verify the restored function of the CD8+ T cells, these CD8+ T cell lines were also tested in a CFSE assay on HLA-E transfectant H3B2 cells loaded with Hsp60sp. A CD8(B) line from each patient served as control. […] This phenomenon has been observed in about 60% of the 10 total T1D patients tested to date.

Qa-1 [6] = assay: Peptide competition assay (functional NK assay); assay type: cell-based, murine; settings: Qdm 20 μM; competing peptide 50, 100, 200 μM; 18 hrs at 26° C.; E/T ratio 2:1
Description: The ability of the Hsp60sp to compete with Qdm for binding to Qa-1 was further tested in a functional NK assay.
Competing peptides (Hsp60sp or control non-Qa-1 binding peptide) at 50, 100, 200 μM were added to the 3F4 cells, together with 20 μM Qdm for 18 hrs at 26° C. (14). Equal numbers of CFSE labeled LCL cells were mixed with 3F4 cells and NK cells were then added into the mixture of peptide loaded 3F4 cells and LCL cells. The percent NK killing of 3F4 cells was evaluated.

[7] = test system: Qa-1 restricted CD8+ T cells; assay: CD8+ T cell inhibition assay, CD8+ T cells from peptide vaccination protected mice; assay type: cell-based
Description: To test this hypothesis, a Qa-1a expressing cell 3F4 was used as peptide-presenting cell to determine the specificity of the CD8+ T cells isolated from either 1-9Nac MBP or p277 vaccination protected B10PL and NOD mice.
Physiological target T cells, the intermediate avidity 1-9Nac MBP specific clone 1AE10 from B10PL mice and p277 specific clone 15A6 from NOD mice served as positive controls, and low avidity MBP specific clone 4D10 and p277 specific clone 1304 served as negative control to assess the function and the specificity of the CD8+ T cells. It is noted that “quantitative” but not “qualitative” differences between the Qa-1/Hsp60sp versus Qa-1/Qdm is a function of avidity of T cell activation which determines their susceptibility to the down-regulation by the CD8+ T.
3F4 cells were passively loaded with peptides overnight at 26° C. Equal number of unlabeled 3F4 cells loaded with peptides and CFSE labeled 3F4 cells that are not loaded with peptide were mixed and a graded number of CD8+ T cells were added to the targets. […] 4 days later, the cell mixtures were stained with anti-mouse CD8-PE mAb to distinguish CD8+ T cells from target cells and the CD8+ T cells were gated out during the analysis when the ratio between two types of targets were calculated. […]

CD94/NKG2A (Homo sapiens, UniProt P26715+Q13241), sequence (Q13241 whole entry): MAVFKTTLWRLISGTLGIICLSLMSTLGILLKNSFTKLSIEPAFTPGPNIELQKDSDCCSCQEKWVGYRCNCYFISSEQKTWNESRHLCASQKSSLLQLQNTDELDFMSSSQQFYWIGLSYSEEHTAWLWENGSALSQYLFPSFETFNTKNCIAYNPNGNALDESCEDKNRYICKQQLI
CD94/NKG2A (Homo sapiens, UniProt P26715+Q13241), sequence (P26715 whole entry): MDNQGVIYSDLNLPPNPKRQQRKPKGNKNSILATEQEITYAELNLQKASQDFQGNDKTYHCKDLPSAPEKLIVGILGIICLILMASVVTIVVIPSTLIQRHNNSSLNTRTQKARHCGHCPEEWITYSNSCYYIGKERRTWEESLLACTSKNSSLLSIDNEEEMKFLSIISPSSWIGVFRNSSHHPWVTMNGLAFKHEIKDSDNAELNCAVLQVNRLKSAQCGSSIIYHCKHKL

Substance: AMAPRTLLL [Qdm]
Binding to Qa-1 (shift in intensity of Qa-1a surface staining) (Qa-1 [1]): could bind to Qa-1 | Inhibition of NK killing of peptide-loaded 3F4 cells (CD94/NKG2A [2]): resistant to the NK killing | Binding to Qa-1 (Qa-1/HLA-E): binds with high affinity

Substance: AcASGLAPSGA (Ac-ASGLAPSGA; listed as Mus musculus) [1-9Nac MBP]
Protection from subsequently induced EAE (EAE in B10PL mice): equally effectively protected from EAE | Protection from spontaneously developed T1D (T1D in NOD mice): equally protected NOD mice from spontaneously developed T1D

Substance: HEL: conventional foreign antigen Hen Egg Lysozyme
Protection from subsequently induced EAE (EAE in B10PL mice): CD8+ T cell dependent protection from either EAE or T1D | Protection from spontaneously developed T1D (T1D in NOD mice): CD8+ T cell dependent protection from either EAE or T1D

Binding to Qa-1 (shift in intensity of Qa-1a surface staining) (Qa-1 [1]): could bind to Qa-1
Substance: QMRPVSRAL (listed as Mus musculus) [Hsp60sp]
Susceptibility of peptide-loaded 3F4 cells to down-regulation by CD8+ T cells [3]: susceptible to the down-regulation by the CD8+ T cells | Interaction of HLA-E/peptide complex with CD94/NKG2A (CD94/NKG2A [4]): does not interact with CD94/NKG2A | Inhibition of NK killing of peptide-loaded 3F4 cells (CD94/NKG2A [2]): does not inhibit NK killing | Competition with B7sp for occupancy of HLA-E (Qa-1/HLA-E; human studies): capable of competing with B7sp peptide | Inhibition of H3B2 cells loaded with peptide by CD8(H) ([5]; CD8(H) line from a T1D patient, after in vitro priming with DCs loaded with Hsp60sp): specifically inhibited | Inhibition of H3B2 cells loaded with peptide by CD8+ T cells ([5]; CD8+ T cells from freshly isolated PBMC of T1D patients (11 total patients tested)): failed to specifically inhibit | Inhibition of H3B2 cells loaded with peptide by CD8+ T cells ([5]; CD8+ T cells from normal controls): specifically inhibited | Inhibition of HLA-E transfected clones loaded with peptide by CD8(H) ([5]; CD8+ T cells primed in vitro with Hsp60sp loaded dendritic cells): specifically inhibit | Competition with Qdm for binding to Qa-1 (abrogation of Qdm protection from NK killing) (Qa-1 [6]): abrogated the protection of NK killing of 3F4 by Qdm in a dose dependent manner | Down-regulation of peptide-sensitized 3F4 cells by CD8+ T cells ([7]; CD8+ T cells from 1-9Nac MBP or p277 vaccination protected B10PL mice): efficiently down-regulated | Down-regulation of peptide-sensitized 3F4 cells by CD8+ T cells ([7]; CD8+ T cells from p277 or 1-9Nac MBP vaccination protected NOD mice): efficiently down-regulated

Substance: VLGGGVALLRVIPALDSLTPANED [p277]
Protection from subsequently induced EAE (EAE in B10PL mice): equally effectively protected from EAE | Protection from spontaneously developed T1D (T1D in NOD mice): completely protected NOD mice from spontaneously developed T1D up to 35 week's of age
